This passage reports IC50, Activity and inhibition results from ChEMBL document CHEMBL5321262, “Antiviral Activity of Cannabidiolic Acid and Its Methyl Ester against SARS-CoV-2” (J Nat Prod, 2023).

The subject of assay [1] is SARS-CoV-2. Briefly: Antiviral activity against SARS-CoV-2 variant Omicron BA.5 infected in African green monkey Vero E6 cells assessed as reduction in virus titers of progeny virus in supernatant measured after 72 hrs by CPE assay. The following applies: Severe acute respiratory syndrome coronavirus 2, Omicron BA.5, Vero C1008, 72 h. The class given is functional, organism-based.

The subject of assay [2] is SARS-CoV-2. Kind of assay: Antiviral activity against SARS-CoV-2 variant Omicron BA.4 infected in African green monkey Vero E6 cells assessed as reduction in virus titers of progeny virus in supernatant measured after 72 hrs by CPE assay. It is filed as functional, organism-based. The following applies: Severe acute respiratory syndrome coronavirus 2, Omicron BA.4, Vero C1008, 72 h.

For assay [3], the system named is SARS-CoV-2. Briefly: Antiviral activity against SARS-CoV-2 variant Omicron BA.3 infected in African green monkey Vero E6 cells assessed as reduction in virus titers of progeny virus in supernatant measured after 72 hrs by CPE assay. Particulars: Severe acute respiratory syndrome coronavirus 2, Omicron BA.3, Vero C1008, 72 h. The class given is functional, organism-based.

The subject of assay [4] is SARS-CoV-2. Kind of assay: Antiviral activity against SARS-CoV-2 variant Omicron BA.2 infected in African green monkey Vero E6 cells assessed as reduction in virus titers of progeny virus in supernatant measured after 72 hrs by CPE assay. The class given is functional, organism-based. The following applies: Severe acute respiratory syndrome coronavirus 2, Omicron BA.2, Vero C1008, 72 h.

Assay [5] relates to SARS-CoV-2. Briefly: Antiviral activity against SARS-CoV-2 variant Omicron BA.1 infected in African green monkey Vero E6 cells assessed as reduction in virus titers of progeny virus in supernatant measured after 72 hrs by CPE assay. It is filed as functional, organism-based. The following applies: Severe acute respiratory syndrome coronavirus 2, Omicron BA.1, Vero C1008, 72 h.

Assay [6] has as its system SARS-CoV-2. Kind of assay: Antiviral activity against SARS-CoV-2 variant Delta infected in African green monkey Vero E6 cells assessed as reduction in virus titers of progeny virus in supernatant measured after 72 hrs by CPE assay. It is filed as functional, organism-based. Particulars: Severe acute respiratory syndrome coronavirus 2, Delta, Vero C1008, 72 h.
Assay [7] has as its system SARS-CoV-2. Kind of assay: Antiviral activity against SARS-CoV-2 variant Omicron BA.1 infected in African green monkey Vero E6 cells assessed as reduction in viral replication at 37.5 uM measured at 72 hrs post-infection by qRT-PCR analysis. The class given is functional, organism-based. The following applies: Severe acute respiratory syndrome coronavirus 2. For orientation: Quantitative PCR measures a nucleic acid by following its amplification.

Assay [8] has as its system SARS-CoV-2. Briefly: Antiviral activity against SARS-CoV-2 variant Omicron BA.2 infected in African green monkey Vero E6 cells assessed as reduction in viral replication at 37.5 uM measured at 72 hrs post-infection by qRT-PCR analysis. The class given is functional, organism-based. Particulars: Severe acute respiratory syndrome coronavirus 2.
The subject of assay [9] is SARS-CoV-2. Briefly: Antiviral activity against SARS-CoV-2 variant Omicron BA.3 infected in African green monkey Vero E6 cells assessed as reduction in viral replication at 37.5 uM measured at 72 hrs post-infection by qRT-PCR analysis. The class given is functional, organism-based. The following applies: Severe acute respiratory syndrome coronavirus 2.
Assay [10] has as its system SARS-CoV-2. Kind of assay: Antiviral activity against SARS-CoV-2 variant Omicron BA.4 infected in African green monkey Vero E6 cells assessed as reduction in viral replication at 37.5 uM measured at 72 hrs post-infection by qRT-PCR analysis. The class given is functional, organism-based. The following applies: Severe acute respiratory syndrome coronavirus 2.
Assay [11] relates to SARS-CoV-2. Briefly: Antiviral activity against SARS-CoV-2 variant Omicron BA.5 infected in African green monkey Vero E6 cells assessed as reduction in viral replication at 37.5 uM measured at 72 hrs post-infection by qRT-PCR analysis. The class given is functional, organism-based. Particulars: Severe acute respiratory syndrome coronavirus 2.
For assay [12], the system named is SARS-CoV-2. Kind of assay: Antiviral activity against SARS-CoV-2 variant Delta infected in African green monkey Vero E6 cells assessed as reduction in viral replication at 37.5 uM measured at 72 hrs post-infection by qRT-PCR analysis. The class given is functional, organism-based. The following applies: Severe acute respiratory syndrome coronavirus 2.
The subject of assay [13] is SARS-CoV-2. Kind of assay: Antiviral activity against SARS-CoV-2 variant Delta infected in African green monkey Vero E6 cells assessed as reduction in virus-induced cytopathic effect at 37.5 uM preincubated with virus for 1 hr followed by infection with cells and measured after 72 hrs by microscopic analysis. It is filed as functional, organism-based. The following applies: Severe acute respiratory syndrome coronavirus 2, time 73.0 hrs.

Assay [14] concerns SARS-CoV-2. Briefly: Antiviral activity against SARS-CoV-2 variant Omicron BA.1 infected in African green monkey Vero E6 cells assessed as reduction in virus-induced cytopathic effect at 37.5 uM preincubated with virus for 1 hr followed by infection with cells and measured after 72 hrs by microscopic analysis. It is filed as functional, organism-based. The following applies: Severe acute respiratory syndrome coronavirus 2, time 73.0 hrs. (Protection from cytopathic effect is a common read-out in antiviral testing.)

The subject of assay [15] is SARS-CoV-2. Kind of assay: Antiviral activity against SARS-CoV-2 variant Omicron BA.2 infected in African green monkey Vero E6 cells assessed as reduction in virus-induced cytopathic effect at 37.5 uM preincubated with virus for 1 hr followed by infection with cells and measured after 72 hrs by microscopic analysis. The class given is functional, organism-based. The following applies: Severe acute respiratory syndrome coronavirus 2, time 73.0 hrs.

The test system of assay [16] is SARS-CoV-2. Briefly: Antiviral activity against SARS-CoV-2 variant Omicron BA.3 infected African green monkey Vero E6 cells assessed as reduction in virus-induced cytopathic effect at 37.5 uM preincubated with virus for 1 hr followed by infection with cells and measured after 72 hrs by microscopic analysis. It is filed as functional, organism-based. The following applies: Severe acute respiratory syndrome coronavirus 2, time 73.0 hrs.

In assay [17] the test system is SARS-CoV-2. Briefly: Antiviral activity against SARS-CoV-2 variant Omicron BA.4 infected African green monkey Vero E6 cells assessed as reduction in virus-induced cytopathic effect at 37.5 uM preincubated with virus for 1 hr followed by infection with cells and measured after 72 hrs by microscopic analysis. The class given is functional, organism-based. Particulars: Severe acute respiratory syndrome coronavirus 2, time 73.0 hrs.

In assay [18] the test system is SARS-CoV-2. Briefly: Antiviral activity against SARS-CoV-2 variant Omicron BA.5 infected African green monkey Vero E6 cells assessed as reduction in virus-induced cytopathic effect at 37.5 uM preincubated with virus for 1 hr followed by infection with cells and measured after 72 hrs by microscopic analysis. It is filed as functional, organism-based. Particulars: Severe acute respiratory syndrome coronavirus 2, time 73.0 hrs.

The test system of assay [19] is SARS-CoV-2. Briefly: Antiviral activity against SARS-CoV-2 variant Delta infected in African green monkey Vero E6 cells assessed as inhibition of virus titers of progeny virus in supernatant at 37.5 uM measured after 72 hrs by CPE assay relative to control. The class given is functional. The following applies: Severe acute respiratory syndrome coronavirus 2, Delta, Vero C1008.

Assay [20] has as its system SARS-CoV-2. Kind of assay: Antiviral activity against SARS-CoV-2 variant Omicron BA.1 infected in African green monkey Vero E6 cells assessed as inhibition of virus titers of progeny virus in supernatant at 37.5 uM measured after 72 hrs by CPE assay relative to control. It is filed as functional. Particulars: Severe acute respiratory syndrome coronavirus 2, Omicron BA.1, Vero C1008.

Assay [21] concerns SARS-CoV-2. Kind of assay: Antiviral activity against SARS-CoV-2 variant Omicron BA.2 infected in African green monkey Vero E6 cells assessed as inhibition of virus titers of progeny virus in supernatant at 37.5 uM measured after 72 hrs by CPE assay relative to control. The class given is functional. The following applies: Severe acute respiratory syndrome coronavirus 2, Omicron BA.2, Vero C1008.

For assay [22], the system named is SARS-CoV-2. Kind of assay: Antiviral activity against SARS-CoV-2 variant Omicron BA.3 infected in African green monkey Vero E6 cells assessed as inhibition of virus titers of progeny virus in supernatant at 37.5 uM measured after 72 hrs by CPE assay relative to control. Particulars: Severe acute respiratory syndrome coronavirus 2, Omicron BA.3, Vero C1008. It is filed as functional.

Assay [23] has as its system SARS-CoV-2. Kind of assay: Antiviral activity against SARS-CoV-2 variant Omicron BA.4 infected in African green monkey Vero E6 cells assessed as inhibition of virus titers of progeny virus in supernatant at 37.5 uM measured after 72 hrs by CPE assay relative to control. The class given is functional. The following applies: Severe acute respiratory syndrome coronavirus 2, Omicron BA.4, Vero C1008.

The test system of assay [24] is SARS-CoV-2. Briefly: Antiviral activity against SARS-CoV-2 variant Omicron BA.5 infected in African green monkey Vero E6 cells assessed as inhibition of virus titers of progeny virus in supernatant at 37.5 uM measured after 72 hrs by CPE assay relative to control. It is filed as functional. The following applies: Severe acute respiratory syndrome coronavirus 2, Omicron BA.5, Vero C1008.

Activity calls are given as the source filed them. The rule behind the calls is not given here.

For orientation: IC50 means the point on the concentration scale where inhibition reaches its midpoint. Usually inhibition stands for the percentage by which the read-out fell short of the control. As for `C=C(C)[C@@H]1CCC(C)=C[C@H]1c1c(O)cc(CCCCC)c(C(=O)OC)c1O`, the IC50 with SARS-CoV-2 [1] came to 18.6 µM; in the assay on SARS-CoV-2 [2], 19 µM; in the assay with SARS-CoV-2 [3], 18.6 µM; in the assay with SARS-CoV-2 [4] it was 16.6 µM; in the assay with SARS-CoV-2 [5] it was 15.5 µM; in the assay on SARS-CoV-2 [6] it was 15.9 µM. The result in the assay on SARS-CoV-2 [7], in the assay on SARS-CoV-2 [8], in the assay with SARS-CoV-2 [9], with SARS-CoV-2 [10], in the assay with SARS-CoV-2 [11] and in the assay on SARS-CoV-2 [12] was Active. Further, the result in the assay on SARS-CoV-2 [13], with SARS-CoV-2 [14], with SARS-CoV-2 [15], with SARS-CoV-2 [16], in the assay with SARS-CoV-2 [17] and in the assay with SARS-CoV-2 [18] was Active. Besides, the inhibition at 37.5 µM with SARS-CoV-2 [19], with SARS-CoV-2 [20], with SARS-CoV-2 [21], with SARS-CoV-2 [22], in the assay with SARS-CoV-2 [23] and in the assay on SARS-CoV-2 [24] was over 90% in each case.
